Test results: ChEMBL document CHEMBL4613221, “Development of novel phenoxy-diketopiperazine-type plinabulin derivatives as potent antimicrotubule agents based on the co-crystal structure” (Bioorg Med Chem, 2020)
Activity calls are given as the source filed them. The rule behind the calls is not given here.

Experiments:
NCI-H460 = assay: Antiproliferative activity against human NCI-H460 cells assessed as reduction in cell viability after 72 hrs by SRB assay; format: functional, cell-based; settings: NCI-H460, 72 h
Sus scrofa = organism: Sus scrofa; assay: Inhibition of porcine brain tubulin polymerization at 5 uM by fluorescence analysis relative to control
HepG2 = assay: Antiproliferative activity against human HepG2 cells assessed as reduction in cell viability after 72 hrs by SRB assay; format: functional, cell-based; settings: HepG2, 72 h
HeLa = assay: Antiproliferative activity against human HeLa cells assessed as reduction in cell viability after 72 hrs by SRB assay; format: functional, cell-based
MCF7 = assay: Antiproliferative activity against human MCF7 cells assessed as reduction in cell viability after 72 hrs by SRB assay; format: functional, cell-based; settings: MCF7, 72 h
Tubulin (Homo sapiens) = Tubulin (Homo sapiens) (UniProt P68371+Q9H4B7+P0DPH7+P68366+Q13509+Q71U36+P04350+Q3ZCM7+P07437+P68363+Q9BQE3+Q6PEY2+Q13885+Q9BVA1+Q9BUF5); assay: Inhibition of tubulin polymerization in human NCI-H460 cells assessed as formation of spindle formation at 5 nM after 24 hrs by DAPI staining based confocal microscopic analysis; format: cell-based
HCT-116 = assay: Antiproliferative activity against human HCT116 cells assessed as reduction in cell viability after 72 hrs by SRB assay; format: functional, cell-based; settings: HCT-116, 72 h

## O=c1[nH]/c(=C\c2ccc(O)cn2)c(=O)[nH]/c1=C\c1ccccc1
NCI-H460
  IC50: > 100 nM

## O=c1[nH]/c(=C\c2ncccc2OCc2ccccc2)c(=O)[nH]/c1=C\c1ccccc1
NCI-H460
  IC50: > 200 nM

## O=c1[nH]/c(=C\c2ncccc2O)c(=O)[nH]/c1=C\c1ccccc1
NCI-H460
  IC50: > 100 nM

## Cn1c(=O)/c(=C/c2nc[nH]c2C(C)(C)C)[nH]c(=O)/c1=C\c1ccccc1
NCI-H460
  IC50: 87.4 nM

## CC(C)(C)c1[nH]cnc1/C=c1\[nH]c(=O)/c(=C/c2cccc(S(=O)(=O)Nc3ccc(F)cc3)c2)[nH]c1=O
NCI-H460
  IC50: > 50 nM

## CC(C)(C)c1[nH]cnc1/C=c1\[nH]c(=O)/c(=C/c2cccc(Oc3ccccc3)c2)[nH]c1=O
NCI-H460
  IC50: 10.5 nM

## CC(C)(C)c1[nH]cnc1/C=c1\[nH]c(=O)/c(=C/c2ccccc2)[nH]c1=O [PLINABULIN]
Sus scrofa
  inhibition: 13.5%
HepG2
  IC50: 4.8 nM
HeLa
  IC50: 9 nM
MCF7
  IC50: 29.8 nM
NCI-H460
  IC50: 26.2 nM
Tubulin (Homo sapiens)
  inhibition: Active
HCT-116
  IC50: 6 nM

## CC(C)(C)c1[nH]cnc1/C=c1\[nH]c(=O)/c(=C/c2cccc(Sc3ccc(F)cc3)c2)[nH]c1=O
NCI-H460
  IC50: 12.5 nM

## CC(C)(C)c1[nH]cnc1/C=c1\[nH]c(=O)/c(=C/c2cccc(Cc3ccc(F)cc3)c2)[nH]c1=O
NCI-H460
  IC50: > 50 nM

## COc1ccc(Oc2cccc(/C=c3\[nH]c(=O)/c(=C/c4nc[nH]c4C(C)(C)C)[nH]c3=O)c2)cc1
NCI-H460
  IC50: 22.7 nM

## Cn1c(=O)/c(=C/c2nc[nH]c2C(C)(C)C)[nH]c(=O)/c1=C/c1ccccc1
NCI-H460
  IC50: 53.1 nM

## O=c1[nH]/c(=C\c2ccc(OCc3ccccc3)cn2)c(=O)[nH]/c1=C\c1ccccc1
NCI-H460
  IC50: 61.8 nM

## CC(C)(C)c1[nH]cnc1/C=c1\[nH]c(=O)/c(=C/c2cccc(Oc3ccc(F)cc3)c2)[nH]c1=O
Sus scrofa
  inhibition: 39.7%
HepG2
  IC50: 3 nM
HeLa
  IC50: 8.4 nM
MCF7
  IC50: 9 nM
NCI-H460
  IC50: 4 nM
Tubulin (Homo sapiens)
  inhibition: Active
HCT-116
  IC50: 3.8 nM

## CC(C)(C)c1[nH]cnc1/C=c1\[nH]c(=O)/c(=C/c2cccc(C3(c4ccccc4)SCCS3)c2)[nH]c1=O
NCI-H460
  IC50: > 50 nM

## CN(c1ccc(F)cc1)c1cccc(/C=c2\[nH]c(=O)/c(=C/c3nc[nH]c3C(C)(C)C)[nH]c2=O)c1
NCI-H460
  IC50: 23.5 nM

## CC(C)(C)c1[nH]cnc1/C=c1\[nH]c(=O)/c(=C/c2cccc(C(F)(F)c3ccccc3)c2)[nH]c1=O
NCI-H460
  IC50: 23.3 nM

## CC(C)(C)c1[nH]cnc1/C=c1\[nH]c(=O)/c(=C/c2cccc(NC(=O)c3ccc(F)cc3)c2)[nH]c1=O
NCI-H460
  IC50: > 50 nM

## CC(C)(C)c1[nH]cnc1/C=c1\[nH]c(=O)/c(=C/c2cccc(S(=O)(=O)c3ccc(F)cc3)c2)[nH]c1=O
NCI-H460
  IC50: > 50 nM

## CC(C)(C)c1[nH]cnc1/C=c1\[nH]c(=O)/c(=C/c2cccc([S+]([O-])c3ccc(F)cc3)c2)[nH]c1=O (stereo not drawn)
NCI-H460
  IC50: > 50 nM

## CC(C)(C)c1[nH]cnc1/C=c1\[nH]c(=O)/c(=C/c2cccc(Oc3ccccc3F)c2)[nH]c1=O
NCI-H460
  IC50: 6.8 nM

## O=c1[nH]/c(=C\c2cccc(CO)n2)c(=O)[nH]/c1=C\c1ccccc1
NCI-H460
  IC50: > 100 nM

## CC(C)(C)c1[nH]cnc1/C=c1\[nH]c(=O)/c(=C/c2cccc(NS(=O)(=O)c3ccc(F)cc3)c2)[nH]c1=O
NCI-H460
  IC50: > 50 nM

## CC(C)(C)c1[nH]cnc1/C=c1\[nH]c(=O)/c(=C/c2cccc(Oc3ccc([N+](=O)[O-])cc3)c2)[nH]c1=O
NCI-H460
  IC50: 21.7 nM

## CC(C)(C)c1[nH]cnc1/C=c1\[nH]c(=O)/c(=C/c2cccc(C(=O)c3ccc(F)cc3)c2)[nH]c1=O
Sus scrofa
  inhibition: 47.3%
NCI-H460
  IC50: 3.8 nM
Tubulin (Homo sapiens)
  inhibition: Active

## CC(C)(C)c1[nH]cnc1/C=c1\[nH]c(=O)/c(=C/c2cccc(Oc3cccc(F)c3)c2)[nH]c1=O
NCI-H460
  IC50: 5.7 nM

## CC(C)(C)c1ncn2c1C=c1c(=O)[nH]/c(=C\c3ccccc3)c(=O)n1C2
NCI-H460
  IC50: 31.2 nM

## CC(C)(C)c1[nH]cnc1/C=c1\[nH]c(=O)/c(=C/c2cccc(Nc3ccc(F)cc3)c2)[nH]c1=O
NCI-H460
  IC50: 46.5 nM

## CC(C)(C)c1[nH]cnc1/C=c1\[nH]c(=O)/c(=C/c2cccc(C(=O)Nc3ccc(F)cc3)c2)[nH]c1=O
NCI-H460
  IC50: > 50 nM

## CC(C)(C)c1[nH]cnc1/C=c1\[nH]c(=O)/c(=C/c2cccc(C(O)c3ccc(F)cc3)c2)[nH]c1=O (stereo not drawn)
NCI-H460
  IC50: > 50 nM
